Experiments:
[1] = test system: IL-6 production in RAW264.7 cells; test: LPS-induced IL-6 production in RAW264.7 cells (ELISA); format: cell-based, mouse; details: for Relative amount of IL-6 compared to LPS induction (%): Table 3, compounds at 8 μg/mL (FIG. 1), LPS alone = 100%; for avg / 1 well / 2 well / avg (%): Table 2; for avg / 1 well / 2 well: IL-6 production after LPS; for avg: average of wells; for 1 well: replicate well 1; for 2 well: replicate well 2; for avg (%): relative to LPS (100%)
Experimental: The inhibitory effect on induced IL-6 cytokine production was analyzed. RAW264.7 cells (obtained from the Korean Cell Line Bank) were seeded at a density of 5×10^5 cells/well in a 12-well plate and stabilized in a CO2 incubator at 37° C. with 5% carbon dioxide and saturated humidity. After 24 hours of incubation, the compounds of the present invention were prepared in DMEM at concentrations of 0 μg/mL or 8 μg/mL and pre-treated for 30 minutes. Next, lipopolysaccharide (LPS, Sigma-Aldrich, Cat No. L2887) was treated to a concentration of 1 μg/mL to induce an inflammatory response for 24 hours. Subsequently, mouse IL-6 ELISA kit (Labiskoma, Cat No. K0331230P) and mouse TNF-α ELISA kit (Labiskoma, Cat No. K0331186P) were used according to the manufacturer's instructions, and absorbance was measured. FK506 (FK-506 monohydrate, manufacturer: MilliporeSigma, product number: F4679, U.S.A) was used as a control substance.
After inducing inflammation as described in (1) and (2) above, the supernatant was collected, and the quantification of IL-6 in the supernatant was performed using the IL-6 ELISA kit (Mouse IL-6 ELISA Kit, pink-ONE, manufactured by Komabiotech, Product No. K0331230P) according to the manufacturer's instructions. Specifically, the amount of IL-6 in the supernatant was quantified according to the ELISA kit protocol, and the absorbance was measured at OD 450 nm using a microplate reader (Multiskan Sky, manufactured by Thermo Fisher Scientific). […] In Table 1 to Table 3, FIG. 1, and FIG. 2, the relative values of IL-6 generated after pretreatment with the compounds of the present invention were expressed as a percentage relative to the IL-6 production (100%) induced by LPS, TNF-α, or IFN-β treatment.

[2] = test system: psoriasis symptoms induced by Aldara cream in BALB/c mice; test: Aldara cream-induced mouse psoriasis model: evaluation of scratching; format: in vivo; details: 8th day; topical; Compound 51 1%, Betamethasone 0.05%; versus Veh
Experimental: (§1) After dissolving the test substance (Compound 51 of the present invention) using DMSO (Dimethyl sulfoxide, Sigma, Cat No. 472301), an appropriate concentration was prepared with PBS (HyClone, Cat No. SH30028.02). The transdermal test substance was prepared by dissolving the test substance in 100% ethanol (Medchem, Cat No. HY-13571). Betamethasone dipropionate (Sigma, Cat No. D1756, Lot No. BCBW7684), a positive control, was dissolved in DMSO, and PEG400 (Sigma, Cat. No. 06855) and 30% ethanol (Daejung, Cat. No. 4023-4100) were added to the mixture obtained above. The same vehicle was used for the negative control in the same way as the positive control specimen preparation.
(§2) BALB/c mice (purchased through JA BIO, 27 males, 8 weeks old) were acclimatized for one week. After the mice were anesthetized with isoflurane 3 days before the application of Aldara cream, the hair on the back (3×3 cm) was removed using a clipper. The remaining hair was completely removed by leaving the hair removal cream for 1 minute. The mice were left for 72 hours to heal the wounds. To induce psoriasis, Aldera Cream (5% Imiquimod, Dong-A ST) 62.5 mg was applied at the same time point (AM 10:00) once/day 7 times, and 150 μl of test substance or positive control was applied from the 4th day at the same time point (PM 14:00) for 4 days. […]

[3] = test system: psoriasis symptoms induced by Aldara cream in BALB/c mice; test: Aldara cream-induced mouse psoriasis model: skin lesions / PASI score; format: in vivo; details: topical 150 μl for 4 days from 4th day, Compound 51 1%, Betamethasone 0.05%, versus Veh; for skin lesions (pictures, visual): 8th day; for PASI Score: p<0.001
Experimental: as §1
BALB/c mice (purchased through JA BIO, 27 males, 8 weeks old) were acclimatized for one week. After the mice were anesthetized with isoflurane 3 days before the application of Aldara cream, the hair on the back (3×3 cm) was removed using a clipper. The remaining hair was completely removed by leaving the hair removal cream for 1 minute. The mice were left for 72 hours to heal the wounds. To induce psoriasis, Aldera Cream (5% Imiquimod, Dong-A ST) 62.5 mg was applied at the same time point (AM 10:00) once/day 7 times, and 150 μl of test substance or positive control was applied from the 4th day at the same time point (PM 14:00) for 4 days. The composition of each test group was as follows. a) Con: Normal+excipient application group: 8 animals; b) Veh: Aldara cream+excipient application group: 8 animals; c) Beta: Aldara+Betamethasone 0.05% applied group: 8 animals; and d) Compound 51 1%: Aldara+Compound 51 1% application group: 3 animals. The autopsy proceeded in a non-fasting state, and the dorsal skin was removed from each mouse, rapidly frozen in liquid nitrogen, and stored at −80° C. before for the subsequent experiments.
After taking pictures on the 0th, 4th, and 8th days to measure the skin index values, they were visually observed and recorded to measure the degree of skin lesions on the dorsal area. The condition of psoriasis skin lesions in each group was scored according to the evaluation index (erythema, skin thickness, dead skin cells) as None (0), Weak (1), Moderate (2), Severe (3), Very Severe (4) and set the score, and by summing up the scores of the three items, an evaluation score between a minimum of 0 and a maximum of 12 was calculated. […] After taking pictures in all groups on the 0th, 4th and 8th days, the evaluation indexes (erythema, skin thickness, and dead skin cells) of the psoriasis skin lesions in each group were graphed.

[4] = test system: psoriasis-related cytokine genes IL-17A, IL-17F, IL-23A (p19), IL-12A (p35), IL-12B (p40), IL-1β; test: Aldara cream-induced mouse psoriasis model: qRT-PCR of dorsal skin; format: in vivo; details: dorsal skin RNA, normalized to 18s rRNA; topical; Compound 51 1%, Betamethasone 0.05%; versus Veh
Experimental: as §1, §2

CCCC(NC)C(=O)NCc1ccc(-c2ccc(C(F)(F)F)cc2)cc1.Cl (racemic) [Compound 52, (R)/(S)-2-(methylamino)-N-((4′-(trifluoromethyl)-[1,1′-biphenyl]-4-yl)methyl)pentanamide hydrochloride]
Relative amount of IL-6 compared to LPS induction (%) ([1]; LPS 1 μg/mL 24 h): 13%

CCCCC(N)C(=O)NCc1ccc(-c2ccc(C(F)(F)F)cc2)cc1.Cl (racemic) [Compound 48, (R)/(S)-2-amino-N-((4′-(trifluoromethyl)-[1,1′-biphenyl]-4-yl)methyl)hexanamide hydrochloride]
Relative amount of IL-6 compared to LPS induction (%) ([1]; LPS 1 μg/mL 24 h): 67%

CCCC(N)C(=O)Nc1ccc(-c2ccc(OC(F)(F)F)cc2)cc1.Cl (racemic) [Compound 32, (R)/(S)-2-amino-N-(4′-(trifluoromethoxy)-[1,1′-biphenyl]-4-yl)pentanamide hydrochloride]
Relative amount of IL-6 compared to LPS induction (%) ([1]; LPS 1 μg/mL 24 h): 16%

CCCC(N)C(=O)NCc1ccc(-c2ccc(Cl)c(Cl)c2)cc1.Cl (racemic) [Compound 45, (R)/(S)-2-amino-N-((3′,4′-dichloro-[1,1′-biphenyl]-4-yl)methyl)pentanamide hydrochloride]
Relative amount of IL-6 compared to LPS induction (%) ([1]; LPS 1 μg/mL 24 h): 3%

CCCC(NC)C(=O)NCc1ccc(-c2ccc(Cl)c(Cl)c2)cc1.Cl (racemic) [Compound 51, (R)/(S)—N-((3′,4′-dichloro-[1,1′-biphenyl]-4-yl)methyl)-2-(methylamino)pentanamide hydrochloride]
pruritus (scratching counts, 30 minutes) [2]: tendency to decrease pruritus | skin lesions (pictures, visual) [3]: visually improved | PASI Score [3]: significantly decreased | avg ([1]; compound at 2 μg/ml): 2615.50 | avg ([1]; compound at 4 μg/ml): 586.95 | 1 well ([1]; compound at 2 μg/ml): 2815.00 | 1 well ([1]; compound at 4 μg/ml): 669.30 | 2 well ([1]; compound at 2 μg/ml): 2416.00 | 2 well ([1]; compound at 4 μg/ml): 504.60 | avg (%) ([1]; compound at 2 μg/ml): 56.11% | avg (%) ([1]; compound at 4 μg/ml): 12.59% | psoriasis-related cytokine genes (IL-17A, IL-17F, IL-23A (p19), IL-12A (p35), IL-12B (p40), IL-1β) expression [4]: significantly reduced

CCCC(N)C(=O)NCCc1ccc(-c2ccc(F)c(F)c2)cc1.Cl (racemic) [Compound 82, (R)/(S)-2-amino-N-(2-(3′,4′-difluoro-[1,1′-biphenyl]-4-yl)ethyl)pentanamide hydrochloride]
Relative amount of IL-6 compared to LPS induction (%) ([1]; LPS 1 μg/mL 24 h): 3%

CCCC(N)C(=O)NCc1ccc(-c2ccc(C(F)(F)F)cc2)cc1.Cl (racemic) [Compound 47, (R)/(S)-2-amino-N-((4′-(trifluoromethyl)-[1,1′-biphenyl]-4-yl)methyl)pentanamide hydrochloride]
Relative amount of IL-6 compared to LPS induction (%) ([1]; LPS 1 μg/mL 24 h): 12%

CCCC(NC)C(=O)NCCc1ccc(-c2ccc(C(F)(F)F)cc2)cc1.Cl (racemic) [Compound 87, (R)/(S)-2-(methylamino)-N-(2-(4′-(trifluoromethyl)-[1,1′-biphenyl]-4-yl)ethyl)pentanamide hydrochloride]
Relative amount of IL-6 compared to LPS induction (%) ([1]; LPS 1 μg/mL 24 h): 24%

CCC(=O)OCC(=O)[C@@]1(OC(=O)CC)[C@@H](C)C[C@H]2[C@@H]3CCC4=CC(=O)C=C[C@]4(C)[C@@]3(F)[C@@H](O)C[C@@]21C [Beta, Betamethasone dipropionate, reference compound]
pruritus (scratching counts, 30 minutes) [2]: significant decrease | skin lesions (pictures, visual) [3]: visually improved | PASI Score [3]: significantly decreased | psoriasis-related cytokine genes (IL-17A, IL-17F, IL-23A (p19), IL-12A (p35), IL-12B (p40), IL-1β) expression [4]: significantly reduced

CCCC(N)C(=O)NCc1ccc(-c2ccc(OC(F)(F)F)cc2)cc1.Cl (racemic) [Compound 49, (R)/(S)-2-amino-N-((4′-(trifluoromethoxy)-[1,1′-biphenyl]-4-yl)methyl)pentanamide hydrochloride]
Relative amount of IL-6 compared to LPS induction (%) ([1]; LPS 1 μg/mL 24 h): 50%

CCC(N)C(=O)NCCc1ccc(-c2ccc(C(F)(F)F)cc2)cc1.Cl (racemic) [Compound 76, (R)/(S)-2-amino-N-(2-(4′-(trifluoromethyl)-[1,1′-biphenyl]-4-yl)ethyl)butanamide hydrochloride]
Relative amount of IL-6 compared to LPS induction (%) ([1]; LPS 1 μg/mL 24 h): 9.58%

CCCC(C(=O)Nc1ccc(-c2ccc(Cl)c(Cl)c2)cc1)N(C)C (racemic) [Compound 36, (R)/(S)—N-(3′,4′-dichloro-[1,1′-biphenyl]-4-yl)-2-(dimethylamino)pentanamide]
Relative amount of IL-6 compared to LPS induction (%) ([1]; LPS 1 μg/mL 24 h): 9%

C=CC[C@@H]1/C=C(\C)C[C@H](C)C[C@H](OC)[C@H]2O[C@@](O)(C(=O)C(=O)N3CCCC[C@H]3C(=O)O[C@H](/C(C)=C/[C@@H]3CC[C@@H](O)[C@H](OC)C3)[C@H](C)[C@@H](O)CC1=O)[C@H](C)C[C@@H]2OC [FK506, FK-506 monohydrate, reference compound]
IL-6 ([1]; Table 1, LPS 1 μg/mL 24 h, compound 77 at 8 μg/ml, FK506 concentration not given): 656.86 pg/mL | IL-6 (%) ([1]; Table 1, relative to IL-6 production induced by LPS (100%), compound 77 at 8 μg/ml, FK506 concentration not given): 45.31%

CCCCC(N)C(=O)NCc1ccc(-c2ccc(OC(F)(F)F)cc2)cc1.Cl (racemic) [Compound 50, (R)/(S)-2-amino-N-((4′-(trifluoromethoxy)-[1,1′-biphenyl]-4-yl)methyl)hexanamide hydrochloride]
Relative amount of IL-6 compared to LPS induction (%) ([1]; LPS 1 μg/mL 24 h): 68%

CCC(NC)C(=O)NCCc1ccc(-c2ccc(Cl)c(Cl)c2)cc1.Cl (racemic) [Compound 83, (R)/(S)—N-(2-(3′,4′-dichloro-[1,1′-biphenyl]-4-yl)ethyl)-2-(methylamino)butanamide hydrochloride]
Relative amount of IL-6 compared to LPS induction (%) ([1]; LPS 1 μg/mL 24 h): 9%

CCCC(C(=O)NCc1ccc(-c2ccc(Cl)c(Cl)c2)cc1)N(C)C (racemic) [Compound 53, (R)/(S)—N-((3′,4′-dichloro-[1,1′-biphenyl]-4-yl)methyl)-2-(dimethylamino)pentanamide]
Relative amount of IL-6 compared to LPS induction (%) ([1]; LPS 1 μg/mL 24 h): 5%

CCCC(N)C(=O)NCCc1ccc(-c2ccc(OC(F)(F)F)cc2)cc1.Cl (racemic) [Compound 80, (R)/(S)-2-amino-N-(2-(4′-(trifluoromethoxy)-[1,1′-biphenyl]-4-yl)ethyl)pentanamide hydrochloride]
Relative amount of IL-6 compared to LPS induction (%) ([1]; LPS 1 μg/mL 24 h): 6%

Source: patent publication US20250281433A1, “NOVEL DERIVATIVE COMPOUND HAVING BIPHENYL GROUP INTRODUCED INTO AMINO-ALKANOIC ACID AND ANTI-INFLAMMATORY COMPOSITION COMPRISING SAME” (AMTIXBIO CO., LTD., priority 2020, published 2025)
